# Biological target: Keap1/Nrf2 (Homo sapiens, UniProt Q14145)
# Sequence (Q16236 whole entry): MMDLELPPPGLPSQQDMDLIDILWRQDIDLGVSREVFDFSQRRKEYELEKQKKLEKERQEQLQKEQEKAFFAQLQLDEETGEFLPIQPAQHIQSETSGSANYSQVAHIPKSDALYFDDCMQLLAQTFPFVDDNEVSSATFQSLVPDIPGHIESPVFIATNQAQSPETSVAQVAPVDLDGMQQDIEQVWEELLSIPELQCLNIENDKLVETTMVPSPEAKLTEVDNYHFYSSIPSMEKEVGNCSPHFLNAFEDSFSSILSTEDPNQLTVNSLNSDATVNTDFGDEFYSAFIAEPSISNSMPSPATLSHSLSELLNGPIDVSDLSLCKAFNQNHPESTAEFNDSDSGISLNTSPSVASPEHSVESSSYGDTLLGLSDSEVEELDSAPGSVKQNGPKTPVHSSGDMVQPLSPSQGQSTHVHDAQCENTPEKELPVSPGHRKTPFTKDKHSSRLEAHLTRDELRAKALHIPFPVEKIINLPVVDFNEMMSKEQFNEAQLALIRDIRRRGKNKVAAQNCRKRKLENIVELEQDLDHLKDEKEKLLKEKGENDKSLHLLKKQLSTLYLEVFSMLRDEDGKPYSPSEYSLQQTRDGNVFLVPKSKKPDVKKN
# Sequence (Q14145 whole entry): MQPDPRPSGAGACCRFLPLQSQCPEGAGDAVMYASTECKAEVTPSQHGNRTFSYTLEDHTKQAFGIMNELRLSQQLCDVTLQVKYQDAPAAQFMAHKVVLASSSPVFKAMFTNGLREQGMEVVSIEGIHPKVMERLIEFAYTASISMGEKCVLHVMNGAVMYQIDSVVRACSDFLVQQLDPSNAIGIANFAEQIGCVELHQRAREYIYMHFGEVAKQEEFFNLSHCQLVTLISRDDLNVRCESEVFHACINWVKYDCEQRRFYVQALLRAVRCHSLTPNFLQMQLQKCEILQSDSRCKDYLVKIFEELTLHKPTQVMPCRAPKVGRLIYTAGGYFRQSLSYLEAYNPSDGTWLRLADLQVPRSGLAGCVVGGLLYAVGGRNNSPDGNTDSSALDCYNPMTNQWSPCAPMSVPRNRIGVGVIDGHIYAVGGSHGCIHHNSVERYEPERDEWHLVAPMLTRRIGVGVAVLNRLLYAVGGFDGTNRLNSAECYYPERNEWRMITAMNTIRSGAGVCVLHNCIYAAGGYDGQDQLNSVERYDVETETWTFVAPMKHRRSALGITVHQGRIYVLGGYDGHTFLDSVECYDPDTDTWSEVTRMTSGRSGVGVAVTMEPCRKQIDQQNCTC
# Description: Inhibition of Keap1 kelch domain (322 to 609 residues) (unknown origin)/Nrf2 (unknown origin) protein-protein interaction incubated for 30 mins by fluorescence polarization assay
row,IC50,Structure (SMILES)
1,16.5 µM,C[C@@H](CC(=O)O)Nc1ccc(N(CC(=O)O)S(=O)(=O)c2ccc(C(F)(F)F)cc2)c2ccccc12
2,1.61 µM,Cc1cc(C)c(C)c(S(=O)(=O)N(CC(=O)O)c2ccc(N[C@@H](C)CC(=O)O)c3ccccc23)c1C
3,2.28 µM,Cc1cc(C)c(S(=O)(=O)Nc2ccc(N[C@@H](C)CC(=O)O)c3ccccc23)c(C)c1
4,10.6 µM,C[C@@H](CC(=O)O)Nc1ccc(N(CC(=O)O)S(=O)(=O)c2ccc(Cl)cc2)c2ccccc12
5,> 50 µM,COc1ccc(S(=O)(=O)Nc2ccc(N[C@@H](CC(=O)O)c3ccccc3)c3ccccc23)cc1
6,> 50 µM,C[C@@H](CC(=O)O)Nc1ccc(NS(=O)(=O)c2ccc(C(C)(C)C)cc2)c2ccccc12
7,13.9 µM,COc1ccc(S(=O)(=O)N(CC(=O)O)c2ccc(N[C@@H](CC(=O)O)c3ccccc3)c3ccccc23)cc1
8,8.21 µM,COc1ccc(S(=O)(=O)N(CC(=O)O)c2ccc(N[C@@H](C)CC(=O)O)c3ccccc23)cc1
9,> 50 µM,COc1ccc(S(=O)(=O)Nc2ccc(N[C@@H](C)CC(=O)O)c3ccccc23)cc1
10,47.6 µM,C[C@@H](CC(=O)O)Nc1ccc(NS(=O)(=O)c2ccc(C(F)(F)F)cc2)c2ccccc12
11,10.1 µM,C[C@@H](CC(=O)O)Nc1ccc(N(CC(=O)O)S(=O)(=O)c2ccc(C(C)(C)C)cc2)c2ccccc12
12,> 50 µM,C[C@@H](CC(=O)O)Nc1ccc(NS(=O)(=O)c2ccc(F)cc2)c2ccccc12
13,6.64 µM,Cc1cc(C)c(C)c(S(=O)(=O)Nc2ccc(N[C@@H](C)CC(=O)O)c3ccccc23)c1C
14,44 µM,Cc1ccc(S(=O)(=O)Nc2ccc(N[C@@H](C)CC(=O)O)c3ccccc23)cc1
15,33.4 µM,CCOc1ccc(S(=O)(=O)Nc2ccc(N[C@@H](C)CC(=O)O)c3ccccc23)cc1
16,> 50 µM,C[C@@H](CC(=O)O)Nc1ccc(NS(=O)(=O)c2ccc(Cl)cc2)c2ccccc12
17,23.7 µM,C[C@@H](CC(=O)O)Nc1ccc(N(CC(=O)O)S(=O)(=O)c2ccc(F)cc2)c2ccccc12
18,7.14 µM,Cc1ccc(S(=O)(=O)N(CC(=O)O)c2ccc(N[C@@H](C)CC(=O)O)c3ccccc23)cc1
19,8.82 µM,CCOc1ccc(S(=O)(=O)N(CC(=O)O)c2ccc(N[C@@H](C)CC(=O)O)c3ccccc23)cc1
